Results from publication PMC7251097, “Aspartate/asparagine-β-hydroxylase: a high-throughput mass spectrometric assay for discovery of small molecule inhibitors” (Scientific Reports, 2020).
Counter-ions that a name gives are not always drawn. Like-named read-outs stand apart in the source and are kept apart here.

Target: T1, His6-AspH315–758 (human aspartate/asparagine-β-hydroxylase, AspH) (Homo sapiens, UniProt Q12797)
T1 construct: N-Terminally His6-tagged human AspH315–758 (His6-AspH315–758) was produced in E. coli BL21 (DE3) cells; made in house; host or cells: E. coli BL21 (DE3), pET-28a(+) vector
T1 sequence (Q12797 315-758): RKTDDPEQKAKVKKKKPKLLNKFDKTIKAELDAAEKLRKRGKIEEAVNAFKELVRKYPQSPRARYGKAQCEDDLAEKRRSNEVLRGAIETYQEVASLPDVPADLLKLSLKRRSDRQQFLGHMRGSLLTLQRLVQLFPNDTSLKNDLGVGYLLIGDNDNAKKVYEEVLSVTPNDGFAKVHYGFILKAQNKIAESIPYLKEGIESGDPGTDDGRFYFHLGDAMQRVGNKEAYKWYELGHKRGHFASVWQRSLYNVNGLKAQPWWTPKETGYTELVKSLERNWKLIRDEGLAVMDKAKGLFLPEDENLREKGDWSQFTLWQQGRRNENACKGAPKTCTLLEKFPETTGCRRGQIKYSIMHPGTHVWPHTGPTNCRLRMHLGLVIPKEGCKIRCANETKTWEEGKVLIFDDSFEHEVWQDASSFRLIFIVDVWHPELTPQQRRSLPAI
Assay: SPE-MS AspH inhibition assay (LOPAC screen at fixed 20 μM and IC50 dose-response), hydroxylation of cyclic peptide hFX-CP101–119
Type: biochemical

[1] = LOPAC compound at fixed 20 uM, plate 1, normalised to DMSO and 2,4-PDCA controls
[2] = LOPAC compound at fixed 20 uM, substrate conversion, plate 1
[3] = LOPAC compound at 20uM, plate 3, conversion of substrate peptide
[4] = LOPAC Plate 4, compound at 20 uM
[5] = LOPAC Plate 4, compound at 20 uM, substrate conversion
[6] = LOPAC compound at 20uM, plate 2, conversion of substrate peptide
[7] = LOPAC compound at 20uM, plate 2, normalised to DMSO and 2,4-PDCA controls, read-out: Plate 2 (% inhibition)
[8] = LOPAC compound at 20uM, plate 2, normalised to DMSO and 2,4-PDCA controls

## Nc1c[n+](N2CCOCC2)no1.[Cl-] [3-Morpholinosydnonimine hydrochloride]
[1]
  Plate 1 (% inhibition): 64.67%
[2]
  Plate 1 (% conversion): 14.15%

## O=C(O)CC[N+](=O)[O-] [3-Nitropropionic acid]
  Plate 3 (% conversion): 32.27%

## CCCn1c(=O)[nH]c(=O)c2nc[nH]c21 [3-n-Propylxanthine]
[3]
  Plate 3 (% conversion): 38.43%

## Nc1ccc2c3c(cccc13)C(=O)NC2=O [4-Amino-1,8-naphthalimide]
[1]
  Plate 1 (% inhibition): -1.00%
[2]
  Plate 1 (% conversion): 36.21%

## N=C(N)c1ccc(N)cc1 [4-Aminobenzamidine dihydrochloride]
[1]
  Plate 1 (% inhibition): -9.05%
[2]
  Plate 1 (% conversion): 38.91%

## Nc1ccncc1 [4-Aminopyridine]
  Plate 1 (% conversion): 34.98%

## C[N+]1(C)CCC(OC(=O)C(c2ccccc2)c2ccccc2)CC1.[I-] [4-DAMP]
[4]
  % inhibition: -3.63%
[5]
  % conversion: 37.71%

## COc1cc(CC(=O)O)ccc1O [4-Hydroxy-3-methoxyphenylacetic acid]
  Plate 2 (% conversion): 38.57%
20 µM
  Plate 2 (% inhibition): -7.80%

## Cl.NCCc1ccc(O)cc1 [4-Hydroxyphenethylamine hydrochloride]
[4]
  % inhibition: -7.46%
[5]
  % conversion: 39.01%

## O=C(O)C=Cc1c[nH]cn1 [4-Imidazoleacrylic acid]
  % conversion: 20.39%

## Cl.OCc1c[nH]cn1 [4-Imidazolemethanol hydrochloride]
  Plate 2 (% conversion): 36.75%
20 µM
  Plate 2 (% inhibition): -2.37%

## O=C1NC(=O)C(c2ccccc2)(c2ccccc2)N1 [5,5-Diphenylhydantoin]
[6]
  Plate 2 (% conversion): 35.84%
[7]
  inhibition at 20 µM: 0.33%

## O=C(O)c1cc(=O)c2c(Cl)cc(Cl)cc2[nH]1 [5,7-Dichlorokynurenic acid]
[6]
  Plate 2 (% conversion): 35.63%
[8]
  Plate 2 (% inhibition): 0.98%

## CN(C)c1nc(N)c(C(=O)NC(=N)N)nc1Cl [5-(N,N-Dimethyl)amiloride hydrochloride]
[1]
  Plate 1 (% inhibition): -6.54%
[2]
  Plate 1 (% conversion): 38.07%

## N=C(N)NC(=O)c1nc(Cl)c(N2CCCCCC2)nc1N [5-(N,N-hexamethylene)amiloride]
[1]
  Plate 1 (% inhibition): -28.14%
[2]
  Plate 1 (% conversion): 45.32%

## Cl.NCCCCC(=O)O [5-Aminovaleric acid hydrochloride]
[1]
  Plate 1 (% inhibition): 15.05%
[2]
  Plate 1 (% conversion): 30.82%

## NCCc1c[nH]c2ccc(C(N)=O)cc12.O=C(O)/C=C\C(=O)O [5-Carboxamidotryptamine maleate]
  Plate 2 (% conversion): 35.62%
20 µM
  Plate 2 (% inhibition): 0.99%

## O=C(O)c1cc2cc(F)ccc2[nH]1 [5-Fluoroindole-2-carboxylic acid]
  Plate 1 (% conversion): 31.84%
  Plate 1 (% inhibition): 12.00%

## O=c1[nH]cc(F)c(=O)[nH]1 [5-Fluorouracil]
[6]
  Plate 2 (% conversion): 36.11%
[7]
  inhibition at 20 µM: -0.46%

## N[C@@H](Cc1c[nH]c2ccc(O)cc12)C(=O)O [5-Hydroxy-L-tryptophan]
[6]
  Plate 2 (% conversion): 37.59%
[7]
  inhibition at 20 µM: -4.87%

## O=C(O)Cc1c[nH]c2ccc(O)cc12 [5-Hydroxyindolacetic acid]
[8]
  Plate 2 (% inhibition): -3.79%

## CCNC(=O)[C@H]1O[C@@H](n2cnc3c(N)ncnc32)[C@H](O)[C@@H]1O [5-N-Ethylcarboxamidoadenosine]
[6]
  Plate 2 (% conversion): 35.71%
[8]
  Plate 2 (% inhibition): 0.73%

## Nc1ncn([C@@H]2O[C@H](CO)[C@@H](O)[C@H]2O)c(=O)n1 [5-azacytidine]
[1]
  Plate 1 (% inhibition): 7.60%
[2]
  Plate 1 (% conversion): 33.32%

## C[C@H]1O[C@@H](n2cc(F)c(=O)[nH]c2=O)[C@H](O)[C@@H]1O [5-fluoro-5-deoxyuridine]
[6]
  Plate 2 (% conversion): 36.33%
[8]
  Plate 2 (% inhibition): -1.12%

## CCCCCC(O)CCCC(=O)O.[Na] (centres unmarked) [5-hydroxydecanoic acid sodium]
[6]
  Plate 2 (% conversion): 36.96%
[8]
  Plate 2 (% inhibition): -3.01%

## CC(C)c1cccc(C(C)C)c1N1C(=O)c2ccc(O)cc2C1=O [5HPP-33]
  % conversion: 25.79%

## CC(=O)[C@H]1CC[C@H]2[C@@H]3CC[C@H]4C[C@H](O)CC[C@]4(C)[C@H]3C(=O)C[C@]12C [5alpha-Pregnan-3alpha-ol-11,20-dione]
  Plate 3 (% conversion): 35.35%

## CC(=O)[C@H]1CC[C@H]2[C@@H]3CC[C@H]4C[C@H](O)CC[C@]4(C)[C@H]3CC[C@]12C [5alpha-Pregnan-3alpha-ol-20-one]
  % conversion: 26.94%

## O=c1[nH]c2ccccc2c2ccccc12 [6(5H)-Phenanthridinone]
[4]
  % inhibition: -0.0747%
[5]
  % conversion: 36.50%

## NCCCCCC(=O)O [6-Aminohexanoic acid]
[1]
  Plate 1 (% inhibition): -0.76%
[2]
  Plate 1 (% conversion): 36.13%

## COc1cc2c(CCNC(C)=O)c[nH]c2cc1O [6-Hydroxymelatonin]
[6]
  Plate 2 (% conversion): 36.89%
[8]
  Plate 2 (% inhibition): -2.79%

## CCCCCCCCCCC/C=C\C(C)(C)/C=C\CCCC(=O)O [7,7-Dimethyl-(5Z,8Z)-eicosadienoic acid]
[6]
  Plate 2 (% conversion): 5.42%
[8]
  Plate 2 (% inhibition): 91.20%

## O.O=c1cc(-c2ccccc2)oc2c(O)c(O)ccc12 [7,8-Dihydroxyflavone hydrate, reference compound]
  % conversion: 2.70%
  inhibition at 20 µM: 99%
read-out: Inhibition at 20 µM [%]
  inhibition at 20 µM: 99%

## O=[N+]([O-])c1cccc2cn[nH]c12 [7-Nitroindazole]
[3]
  Plate 3 (% conversion): 35.80%

## Cn1c(=O)c2c(nc(C=Cc3cccc(Cl)c3)n2C)n(C)c1=O [8-(3-Chlorostyryl)caffeine]
  Plate 2 (% conversion): 38.57%
20 µM
  Plate 2 (% inhibition): -7.82%

## Cn1c(=O)c2[nH]c(-c3ccc(S(=O)(=O)O)cc3)nc2n(C)c1=O [8-(p-Sulfophenyl)theophylline]
[1]
  Plate 1 (% inhibition): 51.62%
[2]
  Plate 1 (% conversion): 18.54%

## Nc1nc2c(nc(Br)n2[C@@H]2O[C@@H]3COP(=O)([O-])O[C@H]3[C@H]2O)c(=O)[nH]1.[Na+] [8-Bromo-cGMP sodium]
[1]
  Plate 1 (% inhibition): 5.25%
[2]
  Plate 1 (% conversion): 34.11%

## Cn1c(=O)c2[nH]c(C3CCCC3)nc2n(C)c1=O [8-Cyclopentyl-1,3-dimethylxanthine]
[6]
  Plate 2 (% conversion): 36.70%
[8]
  Plate 2 (% inhibition): -2.21%

## CCCn1c(=O)c2[nH]c(C3CCCC3)nc2n(CCC)c1=O [8-Cyclopentyl-1,3-dipropylxanthine]
  Plate 2 (% conversion): 38.65%
20 µM
  Plate 2 (% inhibition): -8.06%

## Nc1ncnc2c1ncn2C1CCCC1 [9-cyclopentyladenine]
[1]
  Plate 1 (% inhibition): 2.94%
[2]
  Plate 1 (% conversion): 34.88%

## CC1=C(/C=C/C(C)=C/C=C/C(C)=C\C(=O)O)C(C)(C)CCC1 [13-cis-retinoic acid]
[5]
  % conversion: 23.26%

## N[C@H](C(=O)O)[C@H]1C[C@@H]1C(=O)O [(2S,1S,2S)-2-(carboxycyclopropyl)glycine]
[6]
  Plate 2 (% conversion): 32.34%
[8]
  Plate 2 (% inhibition): 10.80%

## CC(C)C[C@H]1C(=O)N2CCC[C@H]2[C@]2(O)O[C@](NC(=O)[C@@H]3C=C4c5cccc6[nH]c(Br)c(c56)C[C@H]4N(C)C3)(C(C)C)C(=O)N12.CS(=O)(=O)O [(+)-Bromocriptine methanesulfonate]
  Plate 1 (% conversion): 29.77%
  Plate 1 (% inhibition): 18.18%

## CN(C)CC[C@@H](c1ccc(Br)cc1)c1ccccn1 [(+)-Brompheniramine maleate]
[1]
  Plate 1 (% inhibition): 1.01%
[2]
  Plate 1 (% conversion): 35.53%

## CN(C)CC[C@@H](c1ccc(Cl)cc1)c1ccccn1 [(+)-Chlorpheniramine maleate]
[1]
  Plate 1 (% inhibition): -13.88%
[2]
  Plate 1 (% conversion): 40.53%

## N[C@@H](Cn1oc(=O)[nH]c1=O)C(=O)O [(+)-Quisqualic acid]
  % conversion: 34.23%

## CN1C(=O)CC[C@H]1c1cccnc1 [(-)-Cotinine]
  Plate 1 (% conversion): 36.85%
  Plate 1 (% inhibition): -2.91%

## CN1CC[C@@]2(C)c3cc(O)ccc3N(C)[C@@H]12.O=C(O)/C=C/C(=O)O [(-)-Eseroline fumarate]
  Plate 2 (% conversion): 19.71%
20 µM
  Plate 2 (% inhibition): 48.52%

## C[C@@]12N[C@@H](Cc3ccccc31)c1ccccc12.O=C(O)/C=C\C(=O)O [(-)-MK-801 hydrogen maleate]
  Plate 3 (% conversion): 36.17%

## C=C(C)[C@H]1CC=C(C(=O)O)CC1 [(-)-Perillic acid]
[5]
  % conversion: 29.82%

## C[N+]1(C)[C@@H]2C[C@@H](OC(=O)[C@H](CO)c3ccccc3)C[C@H]1[C@@H]1O[C@@H]12 [(-)-Scopolamine methyl bromide]
  % conversion: 37.79%

## CCN1CCC[C@H]1CNC(=O)c1cc(S(N)(=O)=O)ccc1OC [(-)-Sulpiride]
[5]
  % conversion: 32.10%

## Cl.c1ccc([C@H]2CN3CCSC3=N2)cc1 [(-)-Tetramisole hydrochloride]
  Plate 3 (% conversion): 32.10%

## NC/C=C/C(=O)O [(E)-4-amino-2-butenoic acid]
[4]
  % inhibition: 0.14%
[5]
  % conversion: 36.42%

## C[C@](N)(CCP(=O)(O)O)C(=O)O.Cl [(S)-MAP4 hydrochloride]
[3]
  Plate 3 (% conversion): 32.97%

## CC(C)NC[C@H](O)COc1cccc2ccccc12 [(S)-Propranolol hydrochloride]
[5]
  % conversion: 27.07%
